# Literature values as cited in patent US20200018753A1, “NON-INVASIVE BIOMARKER TO IDENTIFY SUBJECT AT RISK OF PRETERM DELIVERY” (NYU Winthrop Hospital, priority 2012, published 2020).
# Tested on: Prostaglandin D2 formation
# Details: IL-1β-stimulated SK-N-SH neuronal cells; presumably by inhibiting cyclooxygenase (COX), especially COX-2
smiles,measurement,value
Oc1ccc(C=Cc2cc(O)cc(O)c2)cc1 [Resveratrol],formation of Prostaglandin D2,reduce formation of Prostaglandin D2
